Assay results reported in patent US3954793A, “1-(2-Propynyl)-1 H-indazole compounds” (priority 1973, dated 1976).
Read-outs that look alike come from different tables or passages of the source.

How the values were obtained:
[1] = tested on: Wilson strain house flies; assay type: in vivo, Wilson strain (susceptible); settings: for Contact Synergistic Ratio, Pyrolan: LC50 pyrolan alone / LC50 with synergist
Method: The required solutions of the insecticide and of the synergist compound were prepared in acetone at a concentration of 1 milligram per milliliter. One-pint wide mouth glass jars were coated with the appropriate insecticide-synergist combination by rolling the jars containing aliquots of the appropriate solutions diluted to three milliliters with acetone to deposit, by evaporation, a film of the test materials. The flies were transferred under carbon dioxide anesthesia and held in the jar at room temperature. Perforated aluminum foil was used to cover the jars and to hold cotton saturated with 10% sugar solution. Counts were made at intervals, but the recorded mortality was based on 24-hour kill, rather than knockdown. All prostrate non-moving flies were considered dead. A determination was then made of the contact synergistic ratio [SR], which is the ratio of the LC50 of insecticide alone to the LC50 of the insecticide when applied together with the synergist. The LC50 of the insecticide was estimated from a log-probit plot of percent kill versus dosage. […] The LC50 of the combination of insecticide and synergist was determined at a synergist to insecticide parts by weight ratio of five to one.

[2] = tested on: IN/WHO strain house flies; test: topical application, percent kill after 24 hours, susceptible IN/WHO strain; assay type: in vivo, female); settings: for percent kill after 24 hours, synergist alone (GS 13005 part of Table XXXI): GS 13005 0, synergist 1 μg/fly; for percent kill after 24 hours, with GS 13005: GS 13005 0.10 + synergist 0.50 μg/fly; for percent kill after 24 hours, with Mobam: Mobam 0.20 + synergist 1 μg/fly; for percent kill after 24 hours, synergist alone: insecticide 0, synergist 1 μg/fly
Method: (§1) In Table IX, and in the tables following it, the doses of topically applied insecticides and of synergists unless otherwise noted are expressed as micrograms per fly (μg/fly).
(§2) The synergistic effect of O-(2-propynyl) oximes with mobam was determined from topical application tests on susceptible, female, IN/WHO strain house flies and from tests on resistant, female, Rutgers A strain house flies. The synergist and insecticide were dissolved in ACS Grade acetone in such quantities that a 1.0 μ liter volume applied to the thorax of 3-to-5 day old CO2 -anesthetized female adult house flies contained the desired dosage. After being treated, the flies were confined, 10 to a plaster petri dish, with 3-5 dishes/treament, and held for 24-hr. observation of mortality. Reconstituted skim milk on cotton dental wicks was provided during the holding period. The percent kills after 24 hours are shown in Table X for the IN/WHO strain and Table XI for the Rutgers A strain.
(§3) The synergistic effect of benzyl 2-propynyl ethers with mobam was determined from topical application tests on IN/WHO and Rutgers A strain houseflies, following the procedure of Example 5. The percent kills after 24 hours are shown in Table XIV for the IN/WHO strain and in Table XV for the Rutgers A strain.
The effects of varying the insecticide dose and the synergist-insecticide ratio are further illustrated, with synergist compounds II-D, II-E, II-F and Mobam insecticide, in Tables XVI, XVII and XVIII. […]
The effect on IN/WHO flies of synergist compound IV-C, identified in Table IV, with mobam was determined by the topical application procedure of Example 5. […]
(§4) The synergistic effect with GS 13005 of compounds I-A, I-B, I-D, I-E, I-F, I-G and I-I was determined from topical application tests to IN/WHO strain, Rutgers A strain and polyvalent CH strain houseflies using the procedures of Example 5. The percent kills of the IN/WHO strain flies after 24 hours are shown in Table XXVIII; of the Rutgers A strain, in Table XXIX; and of the polyvalent CH strain, in Table XXX. The doses of insecticide alone to the CH strain files caused 10-40% mortality.
The synergistic effect with Diazinon and GS 13005 of various of the benzyl 2-propynyl ethers identified in Tables II and IIa was determined by topical application tests on IN/WHO strain, and Rutgers A strain and polyvalent, resistant, CH strain houseflies using the procedures of Example 5. The percent kills after 24 hours of IN/WHO strain flies are shown in Table XXXI; of Rutgers A strain flies, in Table XXXII; and of CH strain flies, in Table XXXIII. The doses of insecticide alone to the CH strain flies caused 10-40% mortality. […]
(§5) The synergistic effect on IN/WHO strain flies and Rutgers A strain flies of compound IV-C with GS 13005 and with Diazinon was determined by the topical application procedure of Example 5. The percent kills of IN/WHO strain flies after 24 hours are shown in Tables XXXVI and XXXVII; the percent kills of Rutgers A strain flies are shown in Tables XXXVIII and XXXIX.

[3] = tested on: Rutgers A strain house flies; test: topical application, percent kill after 24 hours, resistant Rutgers A strain; assay type: in vivo, female); settings: for percent kill after 24 hours, with GS 13005: GS 13005 1.0 + synergist 5.0 μg/fly; for percent kill after 24 hours, synergist alone: insecticide 0, synergist 5.0 μg/fly
Method: as §1, §2, §3
The synergistic effect with Diazinon of compounds I-B, I-D, I-F, I-G, I-H and I-I, identified in Tables I and Ia, was determined from topical application tests on IN/WHO strain houseflies and on Rutgers A strain houseflies by the procedure of Example 5. The percent kills after 24 hours are shown in Table XXV for the IN/WHO strain and Table XXVI for the Rutgers A strain.
as §4
The synergistic effect with Diazinon and GS 13005 of various of the benzyl 2-propynyl ethers identified in Tables II and IIa was determined by topical application tests on IN/WHO strain, and Rutgers A strain and polyvalent, resistant, CH strain houseflies using the procedures of Example 5. The percent kills after 24 hours of IN/WHO strain flies are shown in Table XXXI; of Rutgers A strain flies, in Table XXXII; and of CH strain flies, in Table XXXIII. The doses of insecticide alone to the CH strain flies caused 10-40% mortality.
as §5

male mice = test: extension of sleeping time of depressant drugs by synergists; assay type: in vivo, male mice (Swiss albino white); settings: for Mean Sleeping Time, Noludar / Relative Sleeping Time, Noludar: Noludar 110 mg/kg; for Relative Sleeping Time, Noludar / Relative Sleeping Time, Secobarbital: treated/control; for Mean Sleeping Time, Secobarbital / Relative Sleeping Time, Secobarbital: Secobarbital 37 mg/kg
Method: The selectivity of the synergist compounds of this invention is illustrated by the results of sleeping-time extension tests and of acute toxicity tests on Swiss albino white male mice.
The effect of various synergist compounds on sleeping time of sodium secobarbital [Secobarbital] and of 3,3-diethyl-5-methyl-2,4-dioxypiperidine [Noludar] was determined by administering the drug, with and without synergist, to approximately 38-day old male mice weighing from 25 to 30 grams. Synergists were administered in each of two doses, 74.0 mg/kg (dilution being 2.0 mg/0.1 ml corn oil), and 110.0 mg/kg (dilution 3.0 mg/0.1 ml oil). Secobarbital was administered at a dose of 37.0 mg/kg (dilution 1.0 mg/0.1 ml water). Noludar was administered at a dose of 110.0 mg/kg (dilution 3.0 mg/0.1 ml water). The synergist was administered one hour prior to administration of the Secobarbital or Noludar. Secobarbital and Noludar sleeping times were obtained for both the control (drug only) and the treated (synergist plus drug) mice by noting the time lapse between the administration of the drug and the recovery of the righting reflex, i.e. when the animal regains conciousness and can walk up an inclined wooden tray with coordination. The relative sleeping time (R.S.) was noted. The R.S. is the extended sleeping time in the treated mice (synergist plus drug) divided by the sleeping time in the control mice (drug only). The mean sleeping time for the treated mice and the R.S. are shown on Table XXXXIV for various synergist compounds.

[4] = tested on: Swiss albino, white male mice; test: acute toxicity and synergism of acute toxicity in mice; assay type: in vivo; settings: 48 hours, eight mice
Method: To determine the acute toxicity of dimetilan alone, eight dosage levels of Dimetilan, ranging from 4 to 32 mg per kg were applied to eight, Swiss, albino, white, male mice per dosage level. The mice weighed approximately 23 to 27 grams and were five to six weeks old. The Dimetilan was administered intraperitoneally in 0.1 ml of corn oil one hour after the administration of the same dose of corn oil alone.
To determine the acute toxicity of the synergist alone, various synergists were administered intraperitoneally at a dose of 1000 mg/kg to each of a group of eight mice. The number of animals dead at the end of 72 hours is reported in the left hand column of Table XXXXVI.
The synergism of the acute toxicity of Dimetilan by various synergists was determined by tests on Swiss albino, white male mice aged five to six weeks and weighing 23 to 27 grams. The synergists and insecticides were dissolved in corn oil and the drugs were dissolved in distilled water. All compounds were administered intraperitoneally by injection in the lower quadrent of the abdomen. The synergist was administered in 0.1 ml of corn oil one hour prior to administration of the insecticide. Eight mice were treated, per dosage, with each synergist. The mice were watched for a minimum of 6 hours while held in a glass jar with bedding individually after intraperitoneal injection of the test solutions. Lethality was noted, the animals were weighed and transferred in cages, and food and water were supplied. Control mice were given 0.1 ml of corn oil at the time of administration of the synergist to the test mice and 0.1 ml corn oil plus Dimetilan at the time of administration of the insecticide to the test mice.
By the same procedure, the synergism of acute toxicity of GS 13005, Secobarbital and 6-dimethylamino-4,4-diphenyl-3-heptanone [Methadone] was determined.

[5] = synergist to insecticide 5:1 by weight
[6] = synergist 110 mg/kg one hour prior
[7] = synergist 74 mg/kg one hour prior
[8] = Dimetilan 8 + synergist 80 mg/kg i.p.
[9] = Dimetilan 8 + synergist 240 mg/kg i.p.

Compound	Contact Synergistic Ratio, Pyrolan [1, 5]	Contact Synergistic Ratio, Carbaryl ([1]; in vivo)	Contact Synergistic Ratio, Carbaryl ([1]; LC50 carbaryl alone / LC50 with synergist, synergist to insecticide 5:1 by weight)	percent kill after 24 hours, synergist alone (GS 13005 part of Table XXXI) [2]	percent kill after 24 hours, with GS 13005 [2]	percent kill after 24 hours, with Mobam [2]	percent kill after 24 hours, synergist alone [2]	percent kill after 24 hours, with GS 13005 [3]	percent kill after 24 hours, with Mobam ([3]; Mobam 0.40 + synergist 2.0 μg/fly)	percent kill after 24 hours, synergist alone [3]	Mean Sleeping Time, Noludar (male mice; [6])	Relative Sleeping Time, Noludar (male mice; synergist 110 mg/kg)	Mean Sleeping Time, Secobarbital (male mice; [7])	Relative Sleeping Time, Secobarbital (male mice; synergist 74 mg/kg)	Mean Sleeping Time, Secobarbital (male mice; [6])	Relative Sleeping Time, Secobarbital (male mice; synergist 110 mg/kg)	number of mice dead, with Dimetilan [4, 8]	number of mice dead, with Dimetilan [4, 9]
C#CCOCc1ccc(Cl)cc1 [II-A]	7	50	–	–	–	–	–	–	–	–	–	–	–	–	–	–	–	–
C#CCOCc1ccc(Cl)cc1Cl [II-B]	15	50	–	–	–	–	–	–	–	–	–	–	–	–	–	–	–	–
C#CCOCc1ccc2c(c1)OCO2 [II-G]	15	–	100	–	–	–	–	–	–	–	–	–	–	–	–	–	–	–
C#CCOCc1cccc([N+](=O)[O-])c1Cl [II-L]	–	–	–	3%	97%	89%	3%	83%	52%	0%	56 min	1.8	31 min	1.0	42 min	1.8	0	5
C#CCOCc1ccc(Cl)c([N+](=O)[O-])c1 [II-M]	–	–	–	10%	79%	90%	10%	63%	–	0%	47 min	2.1	29 min	1.0	47 min	2	0	3
C#CCOCc1ccc([N+](=O)[O-])cc1Cl [II-N]	–	–	–	–	84%	97%	–	60%	–	–	58 min	1.9	20 min	1.0	39 min	1.7	0	4
C#CCOCc1ccc([N+](=O)[O-])c(Cl)c1 [II-O]	–	–	–	10%	90%	60%	10%	47%	–	3%	52 min	2.4	–	–	26 min	1.1	0	2
C#CCn1nc(Cl)c2ccc([N+](=O)[O-])cc21 [III-C, N-(2-propynyl)-3-chloro-6-nitroindazole]	10	53	–	–	–	–	–	–	–	–	–	–	–	–	–	–	–	–
C#CCOC(c1cccc2ccccc12)C(C)[N+](=O)[O-] (centres unmarked) [IV-B, 2-propynyl 1-naphthyl-2-nitropropyl ether]	10	50	–	–	–	–	–	–	–	–	–	–	–	–	–	–	–	–
